Assay results: publication PMC8102066 (eLife, 2021)
“And” between values parts separate entries of the source, which are not always exact repeats. Equal entries are not always repeated. Where two headings read alike, the source gives them in different places.

Experiments:
[1] = biological target: T1, mGluR2-A726S-G730I-A733T (Rattus norvegicus, UniProt P31421, A726S/A733T/G730I); test: Calcium imaging in HEK 293 T cells; format: cell-based
T1 construct: calcium imaging experiments with mutations in the full-length mGluR2 background; expressed in transfected cells; host or cells: HEK 293T
Experimental: (§1) Approximately 30 ROIs were analyzed per movie.

[2] = biological target: T2, mGluR2-AA695SV (Rattus norvegicus, UniProt P31421, A695S/A696V); test: Calcium imaging in HEK 293 T cells; format: cell-based
T2 construct: calcium imaging experiments with mutations in the full-length mGluR2 background; expressed in transfected cells; host or cells: HEK 293T
Experimental: as §1

[3] = biological target: T3, mGluR2-F584I-G587T (Rattus norvegicus, UniProt P31421, F584I/G587T); test: Calcium imaging in HEK 293 T cells; format: cell-based
T3 construct: calcium imaging experiments with mutations in the full-length mGluR2 background; expressed in transfected cells; host or cells: HEK 293T
Experimental: as §1

[4] = biological target: T4, mGluR2-P778A (Rattus norvegicus, UniProt P31421, P778A); test: Calcium imaging in HEK 293 T cells; format: cell-based
T4 construct: we performed calcium imaging experiments with mutations in the full-length mGluR2 background; expressed in transfected cells; host or cells: HEK 293 T
Experimental: as §1

[5] = biological target: mGluR3-G694A (Rattus norvegicus, UniProt P31422, G694A); test: Calcium imaging in HEK 293 T cells; conditions: for Calcium response amplitude: mGluR3-G694A
[6] = biological target: T5, mGluR2-3xTM4 (Rattus norvegicus, UniProt P31421, A677S/A681F/A685G); test: Inter-LBD FRET (N-terminal SNAP-tags), live cells; conditions: mGluR2-3xTM4, inter-LBD FRET
[7] = biological target: mGluR3 (Rattus norvegicus, UniProt P31422); test: Inter-LBD FRET (N-terminal SNAP-tags), live cells; conditions: for FRET response amplitude: mGluR3, inter-LBD FRET
[8] = biological target: mGluR3-C127A (Rattus norvegicus, UniProt P31422, C127A); test: SiMPull subunit counting in the presence of ligands
[9] = biological target: mGluR2 (Rattus norvegicus, UniProt P31421); test: GIRK channel whole cell patch clamp in HEK 293 T cells
[10] = biological target: T6, mGluR3-3xTM4 (Rattus norvegicus, UniProt P31422, F690A/G694A/S686A); test: as above; conditions: for GIRK current amplitude: mGluR3 3xTM4
[11] = biological target: T5, mGluR2-3xTM4; test: Calcium imaging (G protein chimera, GCaMP6f) in HEK 293 T cells; conditions: normalized to 1 mM glutamate, replicates
[12] = biological target: T6, mGluR3-3xTM4; test: as above; conditions: for Calcium response amplitude: normalized to 1 mM glutamate, replicates
[13] = biological target: mGluR3-I788A (Rattus norvegicus, UniProt P31422, I788A); test: Calcium imaging in HEK 293 T cells; format: cell-based; parameters: we performed calcium imaging experiments with mutations in the full-length mGluR2 background; expressed in transfected cells; host or cells: HEK 293 T; Calcium response amplitude: scale not given here; conditions: for Calcium response amplitude: mGluR3-I788A
Experimental: as §1

[14] = read-out: Glutamate EC50 (micromolar), calcium imaging, Fig 3F source data
[15] = read-out: Glutamate EC50, calcium imaging, normalized to saturating (1 mM) glutamate

T3 sequence (P31421 19-872 F584I/G587T): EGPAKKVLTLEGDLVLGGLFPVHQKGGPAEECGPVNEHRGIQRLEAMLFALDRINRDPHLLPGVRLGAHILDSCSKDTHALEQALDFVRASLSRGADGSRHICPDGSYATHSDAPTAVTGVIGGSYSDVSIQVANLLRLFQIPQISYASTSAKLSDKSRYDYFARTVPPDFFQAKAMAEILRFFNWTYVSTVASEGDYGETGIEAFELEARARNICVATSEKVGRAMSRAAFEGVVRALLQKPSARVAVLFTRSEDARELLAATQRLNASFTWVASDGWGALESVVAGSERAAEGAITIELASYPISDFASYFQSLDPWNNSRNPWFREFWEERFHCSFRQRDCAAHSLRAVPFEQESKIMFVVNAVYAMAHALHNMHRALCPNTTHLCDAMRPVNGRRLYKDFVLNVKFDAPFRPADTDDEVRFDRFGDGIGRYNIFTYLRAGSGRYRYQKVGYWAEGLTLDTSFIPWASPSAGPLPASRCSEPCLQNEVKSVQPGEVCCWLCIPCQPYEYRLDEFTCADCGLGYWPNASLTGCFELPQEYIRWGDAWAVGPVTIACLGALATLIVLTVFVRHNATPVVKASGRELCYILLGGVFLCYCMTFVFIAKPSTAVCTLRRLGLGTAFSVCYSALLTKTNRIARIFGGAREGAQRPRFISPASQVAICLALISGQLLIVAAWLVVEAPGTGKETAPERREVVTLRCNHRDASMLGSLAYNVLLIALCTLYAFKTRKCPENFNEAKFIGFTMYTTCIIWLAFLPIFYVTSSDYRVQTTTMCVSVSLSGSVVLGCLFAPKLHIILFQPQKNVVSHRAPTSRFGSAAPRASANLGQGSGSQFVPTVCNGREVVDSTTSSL
mGluR3-C127A, sequence (P31422 23-879 C127A): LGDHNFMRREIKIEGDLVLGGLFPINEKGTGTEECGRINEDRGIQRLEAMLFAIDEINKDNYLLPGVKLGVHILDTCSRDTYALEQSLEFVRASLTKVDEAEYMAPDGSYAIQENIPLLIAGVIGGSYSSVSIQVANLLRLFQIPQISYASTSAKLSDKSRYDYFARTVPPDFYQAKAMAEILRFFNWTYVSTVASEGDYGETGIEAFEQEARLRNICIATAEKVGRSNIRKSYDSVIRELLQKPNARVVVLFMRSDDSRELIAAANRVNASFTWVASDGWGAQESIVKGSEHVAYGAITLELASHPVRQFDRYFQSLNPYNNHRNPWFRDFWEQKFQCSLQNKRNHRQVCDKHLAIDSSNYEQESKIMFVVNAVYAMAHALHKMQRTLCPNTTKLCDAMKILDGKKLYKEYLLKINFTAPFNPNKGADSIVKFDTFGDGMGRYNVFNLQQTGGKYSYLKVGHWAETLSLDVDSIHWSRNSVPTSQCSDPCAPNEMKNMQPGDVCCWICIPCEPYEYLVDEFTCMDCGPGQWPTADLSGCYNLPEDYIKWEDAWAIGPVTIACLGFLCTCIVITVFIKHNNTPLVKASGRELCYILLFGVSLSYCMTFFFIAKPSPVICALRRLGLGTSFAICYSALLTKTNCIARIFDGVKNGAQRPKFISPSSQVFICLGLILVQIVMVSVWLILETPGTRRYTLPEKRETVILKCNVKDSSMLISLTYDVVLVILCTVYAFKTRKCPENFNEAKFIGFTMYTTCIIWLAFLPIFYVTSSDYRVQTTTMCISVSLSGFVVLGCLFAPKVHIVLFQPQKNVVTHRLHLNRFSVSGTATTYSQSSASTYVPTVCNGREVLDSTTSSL
mGluR3-G694A, sequence (P31422 23-879 G694A): as the sequence (P31422 23-879 C127A) above, with A105C, G672A counted along it
mGluR2, sequence (P31421 19-872): as the sequence (P31421 19-872 F584I/G587T) above, with I566F, T569G counted along it
T5 sequence (P31421 19-872 A677S/A681F/A685G): as the sequence (P31421 19-872 F584I/G587T) above, with I566F, T569G, A659S, A663F, A667G counted along it
T2 sequence (P31421 19-872 A695S/A696V): as the sequence (P31421 19-872 F584I/G587T) above, with I566F, T569G, A677S, A678V counted along it
T4 sequence (P31421 19-872 P778A): as the sequence (P31421 19-872 F584I/G587T) above, with I566F, T569G, P760A counted along it
T1 sequence (P31421 19-872 A726S/G730I/A733T): as the sequence (P31421 19-872 F584I/G587T) above, with I566F, T569G, A708S, G712I, A715T counted along it
mGluR3, sequence (P31422 23-879): as the sequence (P31422 23-879 C127A) above, with A105C counted along it
mGluR3-I788A, sequence (P31422 23-879 I788A): as the sequence (P31422 23-879 C127A) above, with A105C, I766A counted along it
T6 sequence (P31422 23-879 S686A/F690A/G694A): as the sequence (P31422 23-879 C127A) above, with A105C, S664A, F668A, G672A counted along it

With `N[C@@H](CCC(=O)O)C(=O)O` [glutamate] the Calcium response amplitude ([1]; Glutamate 100 nM) was 0.00, the Calcium response amplitude ([1]; Glutamate 3 uM) was 0.71 and 0.60 and the Calcium response amplitude ([1]; Glutamate 10 uM) was 0.93 and 0.97 and 0.56. The Calcium response amplitude ([1]; Glutamate 100 uM) was 1.00, the Calcium response amplitude ([1]; Glutamate 1 mM) was 1.00 and the Calcium response amplitude ([2]; Glutamate 10 nM) was 0.00. The Calcium response amplitude ([2]; Glutamate 100 nM) was 0.00, the Calcium response amplitude ([2]; Glutamate 10 uM) was 0.72 and 0.97 and the Calcium response amplitude ([2]; Glutamate 100 uM) was 1.00. For the same compound, the Calcium response amplitude ([2]; Glutamate 1 mM) was 1.00, the Calcium response amplitude ([3]; Glutamate 100 nM) was 0.00 and the Calcium response amplitude ([3]; Glutamate 3 uM) was 0.62 and 0.57 and 0.48. The Calcium response amplitude ([3]; Glutamate 10 uM) was 0.87 and 0.71, the Calcium response amplitude ([4]; Glutamate concentration 100 nM) was 0.00 and the Calcium response amplitude ([4]; Glutamate concentration 1 uM) was 0.48 and 0.50. For the same compound, the Calcium response amplitude ([4]; Glutamate concentration 10 uM) was 0.94 and 0.87, the Calcium response amplitude ([4]; Glutamate concentration 1 mM) was 1.00 and the Calcium response amplitude ([5]; Glutamate 10 nM) was 0.00. The Calcium response amplitude ([5]; Glutamate 5 uM) was 0.50 and 0.59 and 0.67, the Calcium response amplitude ([5]; Glutamate 10 uM) was 0.98 and the Calcium response amplitude ([5]; Glutamate 100 uM) was 1.00. It also gave a Calcium response amplitude ([5]; Glutamate 1 mM) of 1.00, an EC50 [5, 14] of 4.65 µM and an EC50 [5, 15] of 4.66 ± 0.03 µM. The FRET response amplitude ([6]; Glutamate 10 nM) was 0.00, the FRET response amplitude ([6]; Glutamate 100 nM) was 0.00 and the FRET response amplitude ([6]; Glutamate 3 uM) was 0.10. For the same compound, the FRET response amplitude ([6]; Glutamate 10 uM) was 0.49 and 0.37, the FRET response amplitude ([6]; Glutamate 100 uM) was 1.00 and 0.97 and the FRET response amplitude ([6]; Glutamate 1 mM) was 1.00. The FRET response amplitude ([7]; Glutamate 1 nM) was 0.00, the FRET response amplitude ([7]; Glutamate 10 nM) was 0.00 and the FRET response amplitude ([7]; Glutamate 1 uM) was 0.66 and 0.53. The FRET response amplitude ([7]; Glutamate 3 uM) was 1.00 and 0.63, the FRET response amplitude ([7]; Glutamate 10 uM) was 1.00 and 0.86 and the FRET response amplitude ([7]; Glutamate 100 uM) was 1.00. The EC50 ([7]; read-out: Glutamate EC50, LBD FRET, normalized to saturating (1 mM) glutamate, unit inferred) was 0.64 ± 0.1 µM, the “% Dimerization” value ([8]; SNAP-mGluR3-C127A in presence of the ligand, single replicates per experiment day) was 83.23% and 72.86% and 68.26% and 70.70% and 67.67% and 71.63% and the “effect of ligand on dimerization (SiMPull)” value ([8]; saturating concentration) was “increased dimerization”. For the same compound, the GIRK current amplitude ([9]; Glutamate 10 nM) was 0.000, the GIRK current amplitude ([9]; Glutamate 10 uM) was 0.889 and 0.827 and 0.749 and 0.879 and 0.952 and the GIRK current amplitude ([9]; Glutamate 100 uM) was 0.942 and 1.150 and 0.849 and 0.991. The GIRK current amplitude ([9]; Glutamate 1 mM) was 1.000, the GIRK current amplitude ([10]; Glutamate 10 nM) was 0.000 and the GIRK current amplitude ([10]; Glutamate 10 uM) was 0.695 and 0.866. The GIRK current amplitude ([10]; Glutamate 100 uM) was 1.078 and 0.767 and 0.806, the GIRK current amplitude ([10]; Glutamate 1mM) was 1.000 and the EC50 ([10]; read-out: Glutamate EC50, GIRK activation, normalized to saturating (1 mM) glutamate, unit inferred) was 1.02 ± 0.17 µM. For the same compound, the Calcium response amplitude ([11]; Glutamate 1 nM) was 0.00, the Calcium response amplitude ([11]; Glutamate 10 nM) was 0.00 and the Calcium response amplitude ([11]; Glutamate 100 nM) was 0.26 and 0.30 and 0.14. The Calcium response amplitude ([11]; Glutamate 300 nM) was 0.49 and 0.41, the Calcium response amplitude ([11]; Glutamate 1 uM) was 0.54 and 0.70 and 0.62 and 0.63 and 0.75 and the Calcium response amplitude ([11]; Glutamate 3 uM) was 0.98 and 0.89 and 0.90 and 0.80 and 0.78 and 1.01. For the same compound, the Calcium response amplitude ([11]; Glutamate 10 uM) was 0.95 and 1.00 and 0.99, the Calcium response amplitude ([11]; Glutamate 100 uM) was 0.96 and 0.99 and 1.00 (2×) and the Calcium response amplitude ([11]; Glutamate 1 mM) was 1.00. For the same compound, the Calcium response amplitude ([12]; Glutamate 100 nM) was 0.028 and 0.00, the Calcium response amplitude ([12]; Glutamate 300 nM) was 0.11 (2×) and 0.00 (2×) and the Calcium response amplitude ([12]; Glutamate 3 uM) was 0.32 and 0.20 and 0.21 and 0.35. The Calcium response amplitude ([12]; Glutamate 10 uM) was 0.27 and 0.56 and 0.69, the Calcium response amplitude ([12]; Glutamate 100 uM) was 0.89 and 0.81 and the EC50 [12, 14] was 11 µM. The EC50 [12, 15] was 11 ± 0.1 µM, the Calcium response amplitude ([13]; Glutamate 10 nM) was 0.00 and the Calcium response amplitude ([13]; Glutamate 1 uM) was 0.60 and 0.66 and 0.55. For the same compound, the Calcium response amplitude ([13]; Glutamate 10 uM) was 0.97 and 1.00 and 0.86, the Calcium response amplitude ([13]; Glutamate 100 uM) was 1.00 and the Calcium response amplitude ([13]; Glutamate 1 mM) was 1.00. For the same compound, the EC50 ([13]; read-out: Glutamate EC50, calcium imaging, normalized to saturating (1 mM) glutamate, unit inferred) was 10.43 ± 0.1 µM.
